Measured values published in patent US12084436B2, “Heterocyclic compound” (Takeda Pharmaceutical Company Limited, priority 2019, dated 2024).

target: T1, HDAC6 enzyme (Homo sapiens, UniProt Q9UBN7); assay: HDAC6 enzyme inhibitory assay (HDAC-Glo I/II Assay kit, luminescence); type: biochemical; conditions: 10 μM test compound; wells without enzyme = 100% inhibition; read-out: HDAC6 inhibitory rate (%) (10 μM)
T1 construct: prepared by transducing full length HDAC6 gene into Sf-9 insect cells; GST; purchased SignalChem; host or cells: Sf-9 insect cells
T1 sequence (Q9UBN7 1-1215): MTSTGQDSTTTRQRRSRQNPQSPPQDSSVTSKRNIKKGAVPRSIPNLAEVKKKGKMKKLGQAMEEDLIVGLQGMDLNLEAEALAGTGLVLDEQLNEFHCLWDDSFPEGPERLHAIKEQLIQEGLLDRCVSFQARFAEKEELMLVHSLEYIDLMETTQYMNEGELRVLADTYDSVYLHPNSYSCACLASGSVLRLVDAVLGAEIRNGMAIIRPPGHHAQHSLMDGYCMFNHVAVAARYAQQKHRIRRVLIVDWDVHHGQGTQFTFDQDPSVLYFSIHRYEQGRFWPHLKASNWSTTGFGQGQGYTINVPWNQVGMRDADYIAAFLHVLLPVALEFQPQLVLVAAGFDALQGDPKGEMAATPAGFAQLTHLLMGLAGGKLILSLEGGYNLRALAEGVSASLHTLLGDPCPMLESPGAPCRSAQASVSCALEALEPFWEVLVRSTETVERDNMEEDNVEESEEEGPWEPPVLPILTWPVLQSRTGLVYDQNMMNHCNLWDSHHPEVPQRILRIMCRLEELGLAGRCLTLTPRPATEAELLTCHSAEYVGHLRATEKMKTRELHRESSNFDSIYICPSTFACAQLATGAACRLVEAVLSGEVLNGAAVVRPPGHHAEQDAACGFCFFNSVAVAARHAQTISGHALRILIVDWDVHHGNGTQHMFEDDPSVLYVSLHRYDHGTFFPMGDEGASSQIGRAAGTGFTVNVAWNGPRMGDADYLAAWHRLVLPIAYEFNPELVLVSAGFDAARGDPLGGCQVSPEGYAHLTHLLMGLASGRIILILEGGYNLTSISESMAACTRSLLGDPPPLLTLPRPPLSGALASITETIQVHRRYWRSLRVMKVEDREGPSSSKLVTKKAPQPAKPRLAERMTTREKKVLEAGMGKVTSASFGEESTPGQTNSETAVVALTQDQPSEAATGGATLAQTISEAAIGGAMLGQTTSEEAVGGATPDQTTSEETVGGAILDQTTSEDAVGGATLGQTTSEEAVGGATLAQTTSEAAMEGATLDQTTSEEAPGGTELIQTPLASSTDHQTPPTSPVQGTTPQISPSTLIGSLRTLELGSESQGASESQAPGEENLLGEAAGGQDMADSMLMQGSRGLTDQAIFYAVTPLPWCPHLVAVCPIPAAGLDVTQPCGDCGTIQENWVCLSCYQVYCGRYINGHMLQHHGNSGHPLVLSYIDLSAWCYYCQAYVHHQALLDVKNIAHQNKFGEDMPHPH
Experimental: HDAC6 Enzyme Inhibitory Assay
HDAC6 enzyme prepared by transducing full length HDAC6 gene into Sf-9 insect cells and purifying by GST affinity column were purchased from SignalChem. Using this enzyme, HDAC6 enzyme inhibitory activities of the compound of the present invention were evaluated. Enzymes were used after preserved at −70° C. HDAC6 enzyme inhibitory activity of the compound of the present invention was measured using HDAC-Glo™ I/II Assay kit (Promega) according to the following experimental method. The test compound diluted with assay buffer (24 mM Tris-HCl (pH 7.5), 1 mM MgCl2, 0.35 mM KCl, 135 mM NaCl, 0.6 mM Glutathione, 0.01% Tween-20) was added to a 384-well plate by each 2 μL. Then, HDAC6 enzyme solution diluted with assay buffer was added thereto by each 4 μL, and the plate was incubated at room temperature for 60 min. After incubated, HDAC substrate-Developer solution prepared according to Promega protocol attached to the assay kit was added to the 384-well plate by each 2 μL, and the enzyme reaction was started. After reacting at room temperature for 20 min, luminescence level was measured using plate reader Envision (PerkinElmer). The inhibitory activity of each compound of Example was calculated as a relative activity value when luminescence level in wells without enzyme is considered as 100% inhibition.

How did the inhibition at 10 µM turn out when `CN1CCC(COc2cccnc2-c2cc(F)cc(-c3nnc(C(F)F)o3)c2)CC1=O` (centres unmarked) [Example 14a, 4-{[(2-{3-[5-(difluoromethyl)-1,3,4-oxadiazol-2-yl]-5-fluorophenyl}pyridin-3-yl)oxy]methyl}-1-methylpiperidin-2-one] was run?
Its inhibition at 10 µM is 97%.

For `CN1C(=O)c2cc(-c3nnc(C(F)F)o3)ccc2OC1(C)C1CCCCC1` (centres unmarked) [Example 14b, 2-cyclohexyl-6-[5-(difluoromethyl)-1,3,4-oxadiazol-2-yl]-2,3-dimethyl-2,3-dihydro-4H-1,3-benzoxazin-4-one], which inhibition at 10 µM is on record?
The inhibition at 10 µM was 98%.

Which inhibition at 10 µM does the source give for `O=C(CC(F)(F)F)N(Cc1ccc(F)cc1)N1Cc2ccc(-c3nnc(C(F)F)o3)cc2C1=O` [Example 14c, N-{6-[5-(difluoromethyl)-1,3,4-oxadiazol-2-yl]-1-oxo-1,3-dihydro-2H-isoindol-2-yl}-3,3,3-trifluoro-N-[(4-fluorophenyl)methyl]propanamide] here?
The inhibition at 10 µM was 100%.

`O=C1CCCN1CCOc1cccnc1-c1cc(F)cc(-c2nnc(C(F)F)o2)c1` [Example 15a, 1-{2-[(2-{3-[5-(difluoromethyl)-1,3,4-oxadiazol-2-yl]-5-fluorophenyl}pyridin-3-yl)oxy]ethyl}pyrrolidin-2-one] was tested. Which inhibition at 10 µM did it give?
Its inhibition at 10 µM is 92%.

With `O=C1NN(CC(F)(F)F)Cc2ccc(-c3nnc(C(F)F)o3)cc21` [Example 15b, 7-[5-(difluoromethyl)-1,3,4-oxadiazol-2-yl]-3-(2,2,2-trifluoroethyl)-3,4-dihydrophthalazin-1(2H)-one] as the compound, how does the inhibition at 10 µM read?
Its inhibition at 10 µM is 88%.

Which inhibition at 10 µM does the source give for `O=C1c2cc(-c3nnc(C(F)F)o3)ccc2CN1NCc1ccc(F)cn1` [Example 15c, 6-[5-(difluoromethyl)-1,3,4-oxadiazol-2-yl]-2-{[(5-fluoropyridin-2-yl)methyl]amino}-2,3-dihydro-1H-isoindol-1-one] here?
Its inhibition at 10 µM is 99%.

With `CC(C)(C)OC(=O)N1CCC(Oc2cccnc2-c2cc(F)cc(-c3nnc(C(F)F)o3)c2)CC1` [Example 16a, tert-butyl 4-[(2-{3-[5-(difluoromethyl)-1,3,4-oxadiazol-2-yl]-5-fluorophenyl}pyridin-3-yl)oxy]piperidine-1-carboxylate] as the compound, how does the inhibition at 10 µM read?
The inhibition at 10 µM was 98%.

With `CN1C(=O)c2cc(-c3nnc(C(F)F)o3)ccc2OC1(C)c1ccccc1Cl` (centres unmarked) [Example 16b, 2-(2-chlorophenyl)-6-[5-(difluoromethyl)-1,3,4-oxadiazol-2-yl]-2,3-dimethyl-2,3-dihydro-4H-1,3-benzoxazin-4-one] as the compound, how does the inhibition at 10 µM read?
Its inhibition at 10 µM is 98%.

How did the inhibition at 10 µM turn out when `O=C(OCC(F)F)N(Cc1ccc(F)cc1)N1Cc2ccc(-c3nnc(C(F)F)o3)cc2C1=O` [Example 16c, 2,2-difluoroethyl {6-[5-(difluoromethyl)-1,3,4-oxadiazol-2-yl]-1-oxo-1,3-dihydro-2H-isoindol-2-yl}[(4-fluorophenyl)methyl]carbamate] was run?
Its inhibition at 10 µM is 100%.

How did the inhibition at 10 µM turn out when `CC(C)(C)OC(=O)N1CCCC1COc1cccnc1-c1cc(F)cc(-c2nnc(C(F)F)o2)c1` (centres unmarked) [Example 17a] was run?
Its inhibition at 10 µM is 96%.

How did the inhibition at 10 µM turn out when `CN1C(=O)c2cc(-c3nnc(C(F)F)o3)ccc2OC1(C)c1ccc(C(F)(F)F)cc1` (centres unmarked) [Example 17b, 6-[5-(difluoromethyl)-1,3,4-oxadiazol-2-yl]-2,3-dimethyl-2-[4-(trifluoromethyl)phenyl]-2,3-dihydro-4H-1,3-benzoxazin-4-one] was run?
Its inhibition at 10 µM is 100%.

Which inhibition at 10 µM does the source give for `O=C1c2cc(-c3nnc(C(F)F)o3)ccc2CN1NCC1CCOCC1` [Example 17c, 6-[5-(difluoromethyl)-1,3,4-oxadiazol-2-yl]-2-{[(oxan-4-yl)methyl]amino}-2,3-dihydro-1H-isoindol-1-one] here?
Its inhibition at 10 µM is 98%.

How did the inhibition at 10 µM turn out when `CC1(COc2cccnc2-c2cc(F)cc(-c3nnc(C(F)F)o3)c2)COC1` [Example 18a] was run?
Its inhibition at 10 µM is 98%.

How did the inhibition at 10 µM turn out when `COc1ccc(C2(C)Oc3ccc(-c4nnc(C(F)F)o4)cc3C(=O)N2C)cc1` (centres unmarked) [Example 18b, 6-[5-(difluoromethyl)-1,3,4-oxadiazol-2-yl]-2-(4-methoxyphenyl)-2,3-dimethyl-2,3-dihydro-4H-1,3-benzoxazin-4-one] was run?
The inhibition at 10 µM was 99%.

Which inhibition at 10 µM does the source give for `O=C1c2cc(-c3nnc(C(F)F)o3)ccc2CN1N(CC1CCOCC1)CC1CCOCC1` [Example 18c, 2-{bis[(oxan-4-yl)methyl]amino}-6-[5-(difluoromethyl)-1,3,4-oxadiazol-2-yl]-2,3-dihydro-1H-isoindol-1-one] here?
Its inhibition at 10 µM is 99%.

Which inhibition at 10 µM does the source give for `O=C1COC[C@@H](Cc2ccccc2)N1c1cc(-c2nnc(C(F)F)o2)ccn1` [Example 19a, (5R)-5-benzyl-4-{4-[5-(difluoromethyl)-1,3,4-oxadiazol-2-yl]pyridin-2-yl}morpholin-3-one] here?
Its inhibition at 10 µM is 99%.

For `CN1C(=O)c2cc(-c3nnc(C(F)F)o3)ccc2OC1(C)c1cccc(Cl)c1` (centres unmarked) [Example 19b, 2-(3-chlorophenyl)-6-[5-(difluoromethyl)-1,3,4-oxadiazol-2-yl]-2,3-dimethyl-2,3-dihydro-4H-1,3-benzoxazin-4-one], which inhibition at 10 µM is on record?
Its inhibition at 10 µM is 100%.

Which inhibition at 10 µM does the source give for `O=C1c2cc(-c3nnc(C(F)F)o3)ccc2CN1NCCc1ccc(F)cc1F` [Example 19c, 6-[5-(difluoromethyl)-1,3,4-oxadiazol-2-yl]-2-{[2-(2,4-difluorophenyl)ethyl]amino}-2,3-dihydro-1H-isoindol-1-one] here?
Its inhibition at 10 µM is 98%.

How did the inhibition at 10 µM turn out when `Fc1cc(-c2nnc(C(F)F)o2)cc(-c2nccn2Cc2ccccc2Cl)c1` [Example 20a, 2-(3-{1-[(2-chlorophenyl)methyl]-1H-imidazol-2-yl]-5-fluorophenyl)-5-(difluoromethyl)-1,3,4-oxadiazole] was run?
Its inhibition at 10 µM is 97%.

For `CN1C(=O)c2cc(-c3nnc(C(F)F)o3)ccc2OC1(C)c1ccc(C#N)cc1` (centres unmarked) [Example 20b, 4-{6-[5-(difluoromethyl)-1,3,4-oxadiazol-2-yl]-2,3-dimethyl-4-oxo-3,4-dihydro-2H-1,3-benzoxazin-2-yl}benzonitrile], which inhibition at 10 µM is on record?
Its inhibition at 10 µM is 99%.

With `Fc1cc(-c2nnc(C(F)F)o2)cc(-c2nccn2Cc2cccc(Cl)c2)c1` [Example 21a, 2-(3-[1-[(3-chlorophenyl)methyl]-1H-imidazol-2-yl}-5-fluorophenyl)-5-(difluoromethyl)-1,3,4-oxadiazole] as the compound, how does the inhibition at 10 µM read?
Its inhibition at 10 µM is 93%.

With `CN1C(=O)c2cc(-c3nnc(C(F)F)o3)ccc2OC1(C)c1ccc(OC(F)(F)F)cc1` (centres unmarked) [Example 21b, 6-[5-(difluoromethyl)-1,3,4-oxadiazol-2-yl]-2,3-dimethyl-2-[4-(trifluoromethoxy)phenyl]-2,3-dihydro-4H-1,3-benzoxazin-4-one] as the compound, how does the inhibition at 10 µM read?
Its inhibition at 10 µM is 99%.

Which inhibition at 10 µM does the source give for `O=C1c2cc(-c3nnc(C(F)F)o3)ccc2CN1N(CCC1CCOCC1)Cc1ccc(F)cc1` [Example 21c, 6-[5-(difluoromethyl)-1,3,4-oxadiazol-2-yl]-2-{[(4-fluorophenyl)methyl][2-(oxan-4-yl)ethyl]amino}-2,3-dihydro-1H-isoindol-1-one] here?
Its inhibition at 10 µM is 99%.

Which inhibition at 10 µM does the source give for `Fc1cc(-c2nnc(C(F)F)o2)cc(-c2nccn2Cc2ccc(Cl)cc2)c1` [Example 22a, 2-(3-{1-[(4-chlorophenyl)methyl]-1H-imidazol-2-yl}-5-fluorophenyl)-5-(difluoromethyl)-1,3,4-oxadiazole] here?
Its inhibition at 10 µM is 99%.

How did the inhibition at 10 µM turn out when `Cc1ccc(C2(C)Oc3ccc(-c4nnc(C(F)F)o4)cc3C(=O)N2C)cc1` (centres unmarked) [Example 22b, 6-[5-(difluoromethyl)-1,3,4-oxadiazol-2-yl]-2,3-dimethyl-2-(4-methylphenyl)-2,3-dihydro-4H-1,3-benzoxazin-4-one] was run?
The inhibition at 10 µM was 100%.

With `CC(NN1Cc2ccc(-c3nnc(C(F)F)o3)cc2C1=O)c1ccc(F)cc1` (centres unmarked) [Example 22c, 6-[5-(difluoromethyl)-1,3,4-oxadiazol-2-yl]-2-{[1-(4-fluorophenyl)ethyl]amino}-2,3-dihydro-1H-isoindol-1-one] as the compound, how does the inhibition at 10 µM read?
The inhibition at 10 µM was 100%.
